Results reported in patent US20050276857A1, “Hydrogels formed by non-covalent linkages” (University of Washington, priority 2002, published 2005).
Where two headings read alike, the source gives them in different places.

Tests used:
[1] = Comparison of D- and L-amino acids for forming hydrogels with PVA; assay type: physicochemical; design: key: {square root} = Gel formation when amino acid was dissolved in water; + = Gel formation when amino acid was dissolved in 1 M NaHCO3; − = No gel formation regardless of solvent for amino acid; *= HCl derivative of amino acid; conditions: 1 ml of 8% PVA; for Gel formation, L: L-amino acid; for Gel formation, D: D-amino acid
Protocol: In these experiments, the ability of D-amino acids to gel PVA was compared directly to the gelling observed using L-amino acids. The concentrations of amino acids used were the same for both the L- and D-forms. All D- and L-amino acids were obtained from Aldrich. Typically, 100 mg of amino acid was dissolved in the minimum amount of water or 1M NaHCO3 (200-600 microliter) necessary to dissolve it. […] For each amino acid/PVA combination, 1 ml of 8% PVA was used (80 mg PVA) and the amount of amino acid was varied. 100 mg of each of amino acids was added unless listed below, with the following exceptions: L-Gln 20 mg; D-Ile 50 mg; L-Phe 20 mg and 40 mg; L-Pro 50 mg and 100 mg; L-Ser 30 mg and 100 mg; L-Thr 30 mg; D-Trp 10 mg and 30 mg; L-Trp 8 mg; L-Tyr 10 mg; D-Tyr 10 mg; L-Val 30 mg.

[2] = for amount necessary to cause precipitation of 1 ml 8% PVA: 1.8 mmol of available OH groups
Protocol: Succinic acid, ethylene diamine, and glycine were each dissolved in water at a typical ratio of 100 mg in 1 ml water.
Aliquots of 100 microliter of each solution were added to PVA to reach final concentrations of either ˜0.5 mmol (low concentration) or ˜1 mmol (high concentration) per 1 ml 8% PVA solution (1.8 mmol of available OH groups in PVA).

SMILES | Gel formation, L [1] | Gel formation, D [1] | also measured
N[C@@H](CS)C(=O)O [L-Cys] | + |  | 
Cl.NC(N)=NCCC[C@@H](N)C(=O)O [D-Arg] |  | −* | 
NC(=O)CC[C@@H](N)C(=O)O [D-Gln] |  | − | 
O=C(O)[C@H]1CCCN1 [D-Pro] |  | {square root} | 
NCC(=O)O [Glycine, glycine] | {square root} |  | dissolution of gel in water ([2]; gel formed at pH 7, cured for 1 hour in its solution before placing in water): did not dissolve; Gel formation ([2]; pH 4): −; initial gelling ([2]; pH 4): little gel formation; gelling over time ([2]; pH 4, within the first 24 hours): additional gel formation; Gel formation ([2]; pH 7): +++; gelling at higher concentration ([2]; pH 7): immediate gel formation; gelling over time ([2]; pH 7): More gelling; initial gelling ([2]; pH 7): substantial gelling; amount necessary to cause precipitation of 1 ml 8% PVA ([2]; pH 7): 2.6 mmol; initial gelling ([2]; pH 9.9): much gelling; gelling over time ([2]; pH 9.9, within 24 hours): Considerable additional gelling; Gel formation ([2]; pH 10): ++
C[C@@H](N)C(=O)O [D-Ala] |  | − | 
N[C@H](CC(=O)O)C(=O)O [D-Asp] |  | − | 
NC(=O)CC[C@H](N)C(=O)O [L-Gln] | + |  | 
CC(C)[C@H](N)C(=O)O [L-Val] | + |  | 
N[C@H](CCC(=O)O)C(=O)O [D-Glu] |  | − | 
N[C@@H](CCC(=O)O)C(=O)O [L-Glu] | − |  | 
N[C@@H](CC(=O)O)C(=O)O [L-Asp] | − |  | 
CC[C@@H](C)[C@@H](N)C(=O)O [D-Ile] |  | + | 
CSCC[C@@H](N)C(=O)O [D-Met] |  | + | 
N[C@H](CO)C(=O)O [D-Ser] |  | {square root} | 
N[C@@H](Cc1c[nH]cn1)C(=O)O [L-His] | {square root} |  | 
O=C(O)[C@@H]1CCCN1 [L-Pro] | {square root} |  | 
C[C@H](N)C(=O)O [L-Ala] | + |  | 
CSCC[C@H](N)C(=O)O [L-Met] | − |  | 
CCCC[C@@H](N)C(=O)O [D-Nle] |  | + | 
C[C@@H](O)[C@H](N)C(=O)O [L-Thr] | + |  | 

SMILES | Gel formation, L [1] | Gel formation, D [1] | also measured
N=C(N)NCCC[C@H](N)C(=O)O [L-Arg] | {square root} |  | 
N[C@@H](Cc1c[nH]c2ccccc12)C(=O)O [L-Trp] | {square root} |  | 
CC(C)C[C@@H](N)C(=O)O [D-Leu] |  | + | 
N[C@@H](Cc1ccccc1)C(=O)O [L-Phe] | + |  | 
NC(=O)C[C@@H](N)C(=O)O [D-Asn] |  | − | 
N[C@H](Cc1c[nH]c2ccccc12)C(=O)O [D-Trp] |  | + | 
N[C@H](Cc1c[nH]cn1)C(=O)O [D-His] |  | − | 
NC(=O)C[C@H](N)C(=O)O [L-Asn] | + |  | 
NCCCC[C@@H](N)C(=O)O [D-Lys] |  | {square root} | 
N[C@@H](CO)C(=O)O [L-Ser] | + |  | 
CC(C)C[C@H](N)C(=O)O [L-Leu] | − |  | 
O=C(O)CCC(=O)O [Succinic Acid, succinic acid] |  |  | dissolution of gel in water or in 1M HCl ([2]; gel formed at pH 7.0, higher concentration): did not dissolve; dissolution of gel in water or in 1M HCl ([2]; gel formed at pH 9.7, higher concentration): did not dissolve; Gel formation ([2]; pH 2.1): −; gelling over time ([2]; pH 2.1): No additional gelling; initial gelling ([2]; pH 2.1): very slight gelling; Gel formation ([2]; pH 4): −; Gel formation ([2]; pH 7): +++; gelling at higher concentration ([2]; pH 7.0): PVA precipitates out immediately; gelling over time ([2]; pH 7.0): A little more gelling; initial gelling ([2]; pH 7.0, small amounts added): some initial gelling; amount necessary to cause precipitation of 1 ml 8% PVA ([2]; pH 7): 0.85 mmol; gelling at higher concentration ([2]; pH 9.7): PVA precipitates out immediately; gelling over time ([2]; pH 9.7): Additional gelling; initial gelling ([2]; pH 9.7, small amounts added): some initial gelling; Gel formation ([2]; pH 10): +++; amount necessary to cause precipitation of 1 ml 8% PVA ([2]; pH 10): 0.73 mmol
CC[C@H](C)[C@H](N)C(=O)O [L-Ile] | − |  | 
N[C@@H](Cc1ccc(O)cc1)C(=O)O [L-Tyr] | + |  | 
O=C(O)[C@@H]1C[C@@H](O)CN1 [L-Hyp] | − |  | 
CC(C)[C@@H](N)C(=O)O [D-Val] |  | + | 
N[C@H](Cc1ccc(O)cc1)C(=O)O [D-Tyr] |  | + | 
C[C@H](O)[C@@H](N)C(=O)O [D-Thr] |  | + | 
N[C@H](Cc1ccccc1)C(=O)O [D-Phe] |  | + | 
NCCN [Ethylene Diamine, ethylene diamine] |  |  | Gel formation ([2]; pH 4): −; gelling over time ([2]; pH 4.4): no gelling over time; initial gelling ([2]; pH 4.4): no immediate gelling; Gel formation ([2]; pH 7): −; gelling over time ([2]; pH 7.2): no additional gelling; initial gelling ([2]; pH 7.2): little immediate gelling; Gel formation ([2]; pH 10): ++; initial gelling ([2]; pH 10.0): immediate gelling; gelling over time ([2]; pH 10.0, first 24 hours): additional gelling; initial gelling ([2]; pH 12.7): immediate gelling; gelling over time ([2]; pH 12.7, first 24 hours): additional gelling; Gel formation ([2]; pH 13.1): +++
NCCCC[C@H](N)C(=O)O [L-Lys] | {square root} |  | 
